Reference: article PMC8502973 (Frontiers in Physiology, 2021)

Key:
[1] = Excipient (HP-CD) effects on food intake and body weight; format: in vivo; details: 2% HP-CD/saline, 1 mL/kg, 7 days, lean male rats n = 5
Description: As the excipient used to place ASK1476 in solution, HP-CD, was used in excess, a preliminary experiment was run to examine whether it produces any anorectic effects independently. Testing consisted of a 7-day normal saline treated phase followed by a 7-day 2% HP-CD/saline solution (dose 1 mL/kg) treated phase in lean male rats (n = 5; at start of HP-CD treatment: mean 410 g, SD 26 g). […] Food intake was continuously recorded using AccuScan DietMax (currently OmniTech Electronics, Inc., Diet System) cages and data were binned into 15-min intervals for analysis. The start of the 24-h food intake period aligned to the lights turning off in the animal room. Body weight was recorded, and treatment injections were administered just prior to the start of the dark cycle.

V2R = V2R agonist; no reference given; cited from earlier work
Description: Whereas the overall profile of ASK1476 met the primary aim of our studies including the enhanced stability of the OXTR activator in vivo, the molecule did display a significant activation of the V2R. As mentioned above, the receptor plays the key role in both urine and water homeostasis.

Row | Substance | 7-day food intake, difference vs saline ([1]; 95% CU −0.19 to 0.71, p = 0.187) [g] | body weight gain, difference vs saline ([1]; 95% CU −0.99 to 0.95, p = 0.950) [g] | side effects in the clinical setting (V2R)
1 | Hydroxypropyl-β-cyclodextrin [HP-CD] | 0.26 | -0.02 | –
2 | desmopressin | – | – | hyponatremia and renal water retention
